Assay results: ChEMBL document CHEMBL1121629, “1-(Aminoalkyl)-6-aryl-4-H-s-triazolo[4,3-a][1,4]benzodiazepines with antianxiety and antidepressant activity” (1980)

How the values were obtained:
Type in all cases: functional
[1] = organism: Mus musculus; experiment: Tested for antagonism of oxotremorine hypothermia (OX) in mice
[2] = organism: Mus musculus; experiment: Tested for potentiation of yohimbine toxicity in aggregated mice(Y)
[3] = organism: Mus musculus; experiment: Tested for antagonism of pentylenetetrazole-induced clonic convulsions (P) in mice
[4] = organism: Mus musculus; experiment: Tested for antagonism of bicuculline-induced tonic-extensor convulsions (B) in mice
[5] = organism: Mus musculus; experiment: Prolongation of hypoxic survival time (HS) in mice
[6] = organism: Mus musculus; experiment: Tested for stereotyped gnawing and licking behavior of mice pretreated with apomorphine (AG)
[7] = organism: Mus musculus; experiment: Tested for antagonism of nicotine-induced death (D) in mice
[8] = organism: Mus musculus; experiment: Tested for potentiation of gamma-butyrolactone induced sleep (gamma-B) in mice
[9] = organism: Mus musculus; experiment: Tested for antagonism of nicotine-induced tonic extensor convulsions (TE) in mice

Structure (SMILES): Clc1ccc2c(c1)C(c1ccccc1)=NCc1nnc(CNCC3CC3)n1-2
- ED50 [1]: > 50 mg/kg
- ED50 [2]: 50 mg/kg
- ED50 [3]: 3.1 mg/kg
- ED50 [4]: 1.9 mg/kg
- ED50 [5]: 1 mg/kg
- ED50 [6]: > 50 mg/kg
- ED50 [7]: 0.2 mg/kg
- ED50 [8]: 1.3 mg/kg
- ED50 [9]: 0.2 mg/kg

Structure (SMILES): CN(Cc1nnc2n1-c1ccc(Cl)cc1C(c1ccccc1)=NC2)CC1CC1
- ED50 [1]: > 50 mg/kg
- ED50 [2]: > 50 mg/kg
- ED50 [3]: 3.1 mg/kg
- ED50 [4]: 2.6 mg/kg
- ED50 [5]: 30 mg/kg
- ED50 [6]: > 50 mg/kg
- ED50 [7]: 0.6 mg/kg
- ED50 [8]: 1.1 mg/kg
- ED50 [9]: 0.4 mg/kg

Structure (SMILES): NCCc1nnc2n1-c1ccc(Cl)cc1C(c1ccccc1Cl)=NC2
- ED50 [1]: 29.7 mg/kg
- ED50 [2]: > 50 mg/kg
- ED50 [3]: 21 mg/kg
- ED50 [4]: 25 mg/kg
- ED50 [5]: > 50 mg/kg
- ED50 [6]: 14.9 mg/kg
- ED50 [7]: 4.5 mg/kg
- ED50 [8]: 21 mg/kg
- ED50 [9]: 4.5 mg/kg

Structure (SMILES): NCc1nnc2n1-c1ccc(Cl)cc1C(c1ccccc1)=NC2
- ED50 [1]: 29.7 mg/kg
- ED50 [2]: 35.4 mg/kg
- ED50 [3]: 0.35 mg/kg
- ED50 [4]: 14.9 mg/kg
- ED50 [5]: 0.8 mg/kg
- ED50 [6]: 2.6 mg/kg
- ED50 [7]: 0.28 mg/kg
- ED50 [8]: 0.8 mg/kg
- ED50 [9]: 0.22 mg/kg

Structure (SMILES): Clc1ccc2c(c1)C(c1ccccc1)=NCc1nnc(CNC3CC3)n1-2
- ED50 [1]: > 50 mg/kg
- ED50 [2]: > 50 mg/kg
- ED50 [3]: 3.1 mg/kg
- ED50 [4]: 1.6 mg/kg
- ED50 [5]: 40 mg/kg
- ED50 [6]: > 50 mg/kg
- ED50 [7]: 0.28 mg/kg
- ED50 [8]: 1.1 mg/kg
- ED50 [9]: 0.25 mg/kg

Structure (SMILES): Clc1ccc2c(c1)C(c1ccccc1)=NCc1nnc(CN3CCCC3)n1-2
- ED50 [1]: 56 mg/kg
- ED50 [2]: 100 mg/kg
- ED50 [3]: 17.7 mg/kg
- ED50 [4]: 12.5 mg/kg
- ED50 [5]: 2 mg/kg
- ED50 [6]: 14.9 mg/kg
- ED50 [7]: 4.5 mg/kg
- ED50 [8]: 7.4 mg/kg
- ED50 [9]: 3.6 mg/kg

Structure (SMILES): C#CCNCc1nnc2n1-c1ccc(Cl)cc1C(c1ccccc1)=NC2
- ED50 [1]: > 50 mg/kg
- ED50 [2]: 21 mg/kg
- ED50 [3]: 3.1 mg/kg
- ED50 [4]: 1.6 mg/kg
- ED50 [5]: 30 mg/kg
- ED50 [6]: > 50 mg/kg
- ED50 [7]: 1.4 mg/kg
- ED50 [8]: 0.7 mg/kg
- ED50 [9]: 1.4 mg/kg

Structure (SMILES): CC(c1nnc2n1-c1ccc(Cl)cc1C(c1ccccc1)=NC2)N(C)C (stereo not drawn)
- ED50 [1]: 10.5 mg/kg
- ED50 [2]: 17.7 mg/kg
- ED50 [3]: 17.7 mg/kg
- ED50 [4]: 12.5 mg/kg
- ED50 [5]: > 50 mg/kg
- ED50 [6]: 21 mg/kg
- ED50 [7]: 5 mg/kg
- ED50 [8]: 17.7 mg/kg
- ED50 [9]: 5 mg/kg

Structure (SMILES): CCN(CC)OCc1nnc2n1-c1ccc(Cl)cc1C(c1ccccc1)=NC2
- ED50 [1]: 5.3 mg/kg
- ED50 [2]: > 50 mg/kg
- ED50 [3]: 1.1 mg/kg
- ED50 [4]: 1.1 mg/kg
- ED50 [5]: 6.3 mg/kg
- ED50 [6]: > 50 mg/kg
- ED50 [7]: 0.5 mg/kg
- ED50 [8]: 0.2 mg/kg
- ED50 [9]: 0.56 mg/kg

Structure (SMILES): CN(C)Cc1nnc2n1-c1ccc(Br)cc1C(c1ccccn1)=NC2
- ED50 [1]: 12.5 mg/kg
- ED50 [2]: 29.7 mg/kg
- ED50 [3]: 1.9 mg/kg
- ED50 [4]: 1.3 mg/kg
- ED50 [5]: 30 mg/kg
- ED50 [6]: > 50 mg/kg
- ED50 [7]: 1 mg/kg
- ED50 [8]: 1.3 mg/kg
- ED50 [9]: 1 mg/kg

Structure (SMILES): CNCc1nnc2n1-c1ccc(Cl)cc1C(c1ccccc1)=NC2
- ED50 [1]: 3.7 mg/kg
- ED50 [2]: > 50 mg/kg
- ED50 [3]: 0.4 mg/kg
- ED50 [4]: 0.5 mg/kg
- ED50 [5]: 40 mg/kg
- ED50 [6]: 12.5 mg/kg
- ED50 [7]: 0.18 mg/kg
- ED50 [8]: 0.1 mg/kg
- ED50 [9]: 0.16 mg/kg

Structure (SMILES): CN1C(=O)CN=C(c2ccccc2)c2cc(Cl)ccc21 [DIAZEPAM]
- ED50 [1]: > 50 mg/kg
- ED50 [2]: > 50 mg/kg
- ED50 [3]: 0.1 mg/kg
- ED50 [4]: 2.6 mg/kg
- ED50 [5]: 0.2 mg/kg
- ED50 [6]: > 50 mg/kg
- ED50 [7]: 0.28 mg/kg
- ED50 [8]: 0.035 mg/kg
- ED50 [9]: 0.28 mg/kg
